# According to patent US20250189533A1, “BEAD-BASED ASSAY TO SCREEN FOR INHIBITOR PROTEIN-GLYCAN INTERACTIONS IN NEURODEGENERATION” (Rensselaer Polytechnic Institute, priority 2023, published 2025):
# Assays:
# [1] = target: T1, His-tagged tau / biotinylated heparin interaction (Homo sapiens, UniProt P10636); assay: Bead-based ALPHA assay screening for inhibitors of tau-heparin interaction; format: binding
# T1 construct: recombinant full-length tau (2N4R, as 1-441); made in house; host or cells: E. coli BL21-DE3
# T1 sequence (P10636 1-441 isoform P10636-8): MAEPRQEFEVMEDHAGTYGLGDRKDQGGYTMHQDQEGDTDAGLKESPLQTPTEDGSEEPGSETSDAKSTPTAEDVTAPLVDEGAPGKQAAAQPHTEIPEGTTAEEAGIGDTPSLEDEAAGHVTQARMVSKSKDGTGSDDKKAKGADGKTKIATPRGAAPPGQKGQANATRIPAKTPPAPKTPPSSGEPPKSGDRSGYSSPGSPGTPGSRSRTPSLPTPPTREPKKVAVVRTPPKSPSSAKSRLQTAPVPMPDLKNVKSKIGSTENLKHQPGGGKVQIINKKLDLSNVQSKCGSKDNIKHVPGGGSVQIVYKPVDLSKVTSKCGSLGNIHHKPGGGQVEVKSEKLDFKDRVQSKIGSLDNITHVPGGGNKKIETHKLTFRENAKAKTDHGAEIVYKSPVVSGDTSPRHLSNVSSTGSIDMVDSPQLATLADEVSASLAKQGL
# Description: In some embodiments, the detecting portion 161 is configured to measure a fluorescent emission 164 when the at least one donor bead 110 and the at least one acceptor bead 120 are brought in proximity of one another. In some embodiments, the emitting portion 163 configured to emit a beam of light 162 at a specific wavelength onto the at least one donor bead 110. In some embodiments, the at least one donor bead 110 becomes excited at the specific wavelength, which results in a light emission by the at least one acceptor bead 120. […] In some embodiments, the ability and effectiveness of the screening molecule 150 to inhibit protein-glycan interactions is determined based on the strength of the emission 164, where inhibitors decrease the strength of the emission 164. […] In some embodiments, the user interface outputs information related to the emission 164 detected by the detecting portion 161.
# At 214, the results are determined, meaning that whether or not the screening compound disrupts interactions at the protein-glycan interface is determined. In some embodiments, in the case of the screening molecule 150 being determined to disrupt interactions at the protein-glycan interface, the relative strength of the disruption may also be determined. […]
# tau = target: T2, tau (Homo sapiens, UniProt P10636); assay: Heparin-induced tau aggregation; format: biochemical
# T2 construct: recombinant full-length tau (2N4R, as 1-441); made in house; host or cells: E. coli BL21-DE3
# T2 sequence (P10636 1-441 isoform P10636-8): as above
# Description: (§1) Referring to FIG. 3B, in some embodiments, the screening compound 150 comprises 9-hydroxy-2-(2-piperidinylethyl) ellipticinium acetate or 6H-Pyrido [4, 9-hydroxy-5,11-dimethyl-2-[2-(1-piperidinyl)ethyl]-, acetate (A9) 300. […] A9 300 may comprise a chemical formula of C24H28N3O·C2H3O2 and a molecular weight of 434.0 g/mol. Additional analysis of A9 300 was done by performing a cell uptake assay utilizing H4 neuroglioma cells. […] In some embodiments, A9 300 is effective to disrupt tau-heparin interaction when present in a higher concentration than the concentration of tau. In some embodiments, A9 300 is effective when present in about a 100-fold molar excess relative to the tau-heparin complex.
# [2] = test system: tau uptake in H4 neuroglioma cells; assay: Cell uptake assay utilizing H4 neuroglioma cells; format: cell-based
# Description: as §1
# [3] = target: T3, tau-HS interaction (heparin) (Homo sapiens, UniProt P10636); assay: NMR probing of the tau-A9 interface; format: binding
# T3 construct: recombinant full-length tau (2N4R, as 1-441); made in house; host or cells: E. coli BL21-DE3
# T3 sequence (P10636 1-441 isoform P10636-8): as above
compound,measurement,setting,value
"CC(=O)[O-].Cc1c2cc[n+](CCN3CCCCC3)cc2c(C)c2c1[nH]c1ccc(O)cc12 [A9, 9-hydroxy-2-(2-piperidinylethyl) ellipticinium acetate]",detected fluorescent signal in screen of NCI diversity Set VI,"[1]; 0.1 μM His-tau, 0.1 μM biotinylated heparin, 1 h room temperature, excitation 680 nm, emission 620 nm, lower signal = stronger inhibition",lowest detected fluorescent signal
same,"protein-glycan inhibition, dose-dependent follow-up, ranking among the six hits",[1]; varying compound concentrations,greatest protein-glycan inhibition
same,inhibition of heparin-induced tau aggregation,tau,inhibit heparin-induced tau aggregation in a dose-dependent manner
same,inhibition of tau uptake,[2],inhibited tau uptake in a dose-dependent manner
same,mechanism of disruption of tau-HS interaction,[3]; NMR,disrupt the tau-HS interaction by occupying the glycan
same,region of compound that binds heparin,[3]; further analysis,aromatic region binds to heparin instead of its aliphatic carbons
